Earlier results on one compound are cited in patent US20260240770A1, “LIQUID FORMULATION COMPRISING TRILOSTANE” (NORBROOK LABORATORIES LIMITED, priority 2023, published 2026).

SMILES strings stand for the structures.

The conditions of the series: low water solubility and high membrane permeability.

With `C[C@]12CC[C@H]3[C@@H](CC[C@@]45O[C@@H]4C(O)=C(C#N)C[C@]35C)[C@@H]1CC[C@@H]2O` [Trilostane, 4α,5-epoxy-3,17β-dihydroxy-5α-androst-2-ene-2-carbonitrile], the BCS class entry was “Class Two”.
